# Where no end group is shown, it is not given here. [ ]: non-standard residue; d: D form.
# Key:
# [1] = tested on: several mammalian cell types; conditions: cited from earlier work
# [2] = tested on: subjects suspected of having or diagnosed as having DMD; experiment: Treatment of DMD in humans (Example 1); format: in vivo, human; conditions: for Effect of combination with one or more additional therapeutic agents: compared to peptides or additional agents alone, expected; for Severity of symptoms associated with DMD: daily 1%, 5% or 10% solution, predicted
# From the text: (§1) Subjects suspected of having or diagnosed as having DMD receive daily administrations of 1%, 5% or 10% solution of aromatic-cationic peptide, such as 2′6′-Dmt-D-Arg-Phe-Lys-NH2, Phe-D-Arg-Phe-Lys-NH2, or D-Arg-2′6′-Dmt-Lys-Phe-NH2, or a pharmaceutically acceptable salt thereof, such as acetate, tartrate, hydrochloride salt, or trifluoroacetate salt, alone or in combination with one or more additional therapeutic agents for the treatment or prevention of DMD. Peptides and/or additional therapeutic agents selected from the group consisting of: corticosteroids, Oxandrolone, ACE inhibitors, P188(Poloxamer 188), beta-blockers, diuretics, angiotensin receptor blockers (ARBs), idebenone, alendronate, calcium with vitamin D, albuterol, dantrolene, pentoxifylline, carnitine, Coenzyme Q10, creatine, fish oil, green tea extracts, Vitamin E, PTC-124 (PTC Therapeutics Inc., South Plainfield, N.J.), AVI-4658 phosphorodiamidate morpholino oligomer, azathioprine and cyclosporine, are administered orally, topically, systemically, intravenously, subcutaneously, intraperitoneally, or intramuscularly according to methods known in the art. Dosages of the one or more additional therapeutic agents will range between 0.1 mg/kg to 50 mg/kg. Subjects will be evaluated weekly for the presence and/or severity of signs and symptoms associated with DMD, including, but not limited to, e.g., progressive proximal weakness with onset in the legs and pelvis, hyperlordosis with wide-based gait, hypertrophy of weak muscles, pseudohypertrophy (enlargement of calf and deltoid muscles with fat and fibrotic tissue), reduced muscle contractility on electrical stimulation in advanced stages of the disease, delayed motor milestones, progressive inability to ambulate, heel cord contractures, paralysis, fatigue, skeletal deformities including scoliosis, muscle fiber deformities, cardiomyopathy, congestive heart failure or arrhythmia, muscular atrophy, and respiratory disorders. Treatments are maintained until such a time as one or more signs or symptoms of DMD are ameliorated or eliminated.
# [3] = tested on: subjects at risk of having DMD; experiment: Prevention of DMD in humans (Example 2); format: in vivo, human; conditions: for Effect of combination with one or more additional therapeutic agents: compared to peptides or additional agents alone, expected; for Onset of DMD: daily 1%, 5% or 10% solution, predicted
# From the text: as §1, with “at risk” for “suspected”, “of” for “of having or diagnosed as”, “P188 (Poloxamer” for “P188(Poloxamer”, “disorders.” for “disorders. Treatments are maintained until such a time as one or more signs or symptoms of DMD are ameliorated or eliminated.”
# DBA/2J-mdx mice [4] = experiment: Left ventricular mitochondrial H2O2 emission in permeabilized muscle fiber bundles (spectrofluorometry, Amplex UltraRed) after 12 weeks of treatment; format: in vivo, mouse; conditions: 5 mg/kg daily subcutaneous for 12 weeks
# Method: (§2) Left ventricular mitochondrial H2O2 emission (measured by spectrofluorometry; Amplex UltraRed fluorophore) and respiration (measured by high-resolution respirometry; Oroboros Oxygraph) were assessed in permeabilized muscle fiber bundles (PmFB) from DBA/2J-mdx mice (DMD mice) that were about 4 weeks of age, DBA/2J wildtype mice (wt mice) that were about 4 weeks of age, DMD mice treated with daily subcutaneous injections of Phe-D-Arg-Phe-Lys-NH2 (5mg/kg) for 12 weeks (treated DMD mice), and DMD mice treated with daily subcutaneous injections of […] for 12 weeks (untreated DMD mice). H2O2 emission was measured in the presence of physiological ADP (25 μM). ADP is a suppressor of H2O2 emission during respiration and is affected by the phosphate-shuttling activity of mitochondrial creatine kinase (mtCK). The effect of mtCK was assessed by saturating creatine (Cr) in vitro.
# DBA/2J-mdx mice [5] = experiment: Left ventricular mitochondrial respiration in permeabilized muscle fiber bundles (high-resolution respirometry, Oroboros Oxygraph) after 12 weeks of treatment; format: in vivo, mouse; conditions: 5 mg/kg daily subcutaneous for 12 weeks; for ADP, complex I-supported respiration: treated DMD mice
# Method: as §2
Substance,Penetration of the plasma membrane [1],Effect of combination with one or more additional therapeutic agents [2],Severity of symptoms associated with DMD [2],Effect of combination with one or more additional therapeutic agents [3],Onset of DMD [3],"mtCK-dependent ADP suppression of H2O2 emission, treated vs untreated DMD mice (DBA/2J-mdx mice [4])","ADP-suppression of Complex I-supported H2O2, % of emission at 0 μM ADP/O2 consumed (DBA/2J-mdx mice [4]; +Cr, 25 μM ADP, treated DMD mice)","ADP-suppression of Complex I-supported H2O2, % of 0 μM ADP/O2 consumed (DBA/2J-mdx mice [4]; —Cr, 25 μM ADP, treated DMD mice)","Respiration, treated vs untreated DMD mice (DBA/2J-mdx mice [5]; +Cr or —Cr)","ADP, complex I-supported respiration (DBA/2J-mdx mice [5]; +Cr)","ADP, complex I-supported respiration (DBA/2J-mdx mice [5]; —Cr)"
2′6′-Dmt-D-Arg-Phe-Lys-NH2,readily penetrates the plasma membrane of several mammalian cell types in an energy-independent manner,synergistic effects,reduced severity or elimination of symptoms associated with DMD,synergistic effects,"delayed onset of DMD, or prevention of onset of DMD",–,–,–,–,–,–
D-Arg-2′6′-Dmt-Lys-Phe-NH2,–,synergistic effects,reduced severity or elimination of symptoms associated with DMD,synergistic effects,"delayed onset of DMD, or prevention of onset of DMD",–,–,–,–,–,–
F[dR]FK-NH2,–,synergistic effects,reduced severity or elimination of symptoms associated with DMD,synergistic effects,"delayed onset of DMD, or prevention of onset of DMD",improved,12+/−1%,40+/−11%,did not change respiration,111.4+/−12.0 pmol•s^−1•mg wet wt^−1,59.6+/−7.4 pmol•s^−1•mg wet wt^−

# Reference: patent US20190022167A1, “METHODS AND COMPOSITIONS FOR THE PREVENTION AND TREATMENT OF DUCHENNE MUSCULAR DYSTROPHY” (priority 2016, published 2019)
